“Also recorded” adds a separate entry of the source.
Legend:
[1] = target: T1, peptide transporter (PEPT1) (Homo sapiens, UniProt P46059); details: in vivo
T1 sequence (P46059 1-708): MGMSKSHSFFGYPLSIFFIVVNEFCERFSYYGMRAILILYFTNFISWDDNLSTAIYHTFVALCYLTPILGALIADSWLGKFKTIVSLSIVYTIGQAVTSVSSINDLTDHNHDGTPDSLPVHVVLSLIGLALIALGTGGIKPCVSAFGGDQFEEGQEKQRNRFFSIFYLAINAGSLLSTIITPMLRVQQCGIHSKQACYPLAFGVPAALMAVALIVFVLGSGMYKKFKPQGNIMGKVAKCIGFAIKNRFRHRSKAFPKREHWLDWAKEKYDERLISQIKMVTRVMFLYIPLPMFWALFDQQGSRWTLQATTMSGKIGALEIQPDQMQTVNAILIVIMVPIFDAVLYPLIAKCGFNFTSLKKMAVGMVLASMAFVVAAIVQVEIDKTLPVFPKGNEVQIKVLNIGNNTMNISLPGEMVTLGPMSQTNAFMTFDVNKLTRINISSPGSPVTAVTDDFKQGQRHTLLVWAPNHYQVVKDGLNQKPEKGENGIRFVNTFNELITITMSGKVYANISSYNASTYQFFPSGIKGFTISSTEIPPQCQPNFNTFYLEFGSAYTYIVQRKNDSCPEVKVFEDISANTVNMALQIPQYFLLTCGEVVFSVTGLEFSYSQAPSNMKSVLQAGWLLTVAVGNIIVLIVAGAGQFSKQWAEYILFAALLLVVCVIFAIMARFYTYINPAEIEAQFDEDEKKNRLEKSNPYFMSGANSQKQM

ENS neurons in HIOs+NCCs = assay: Live imaging of Ca2+ flux (GCaMP6f) in HIOs+NCCs in vitro; type: cell-based, human; details: 30 mM; HIOs+GCaMP6 expressing NCCs
Description: The accessibility of in vitro grown HIOs allowed us to test the functionality of neurons using live imaging with the Ca2+ sensor GCaMP6f19. To do this, Applicant generated HIOs and incorporated into them NCCs that were derived from a PSC line containing GCaMP6 (FIG. 17A). Imaging of neural activity in HIOs grown for 8 weeks in vitro detected broad, spontaneous, and rapid calcium transients within neurons. When individual neurons were monitored there was an obvious periodicity of calcium efflux in the range of 3-4 seconds/neuron (FIGS. 17B and 17C).

HIO+NCC tissues = assay: Ex-vivo intestinal motility, organ bath, muscle strips of engrafted HIO+NCC; type: cell-based, human
HIO+NCC tissue = type: cell-based, human
[2] = system: vagal-level Hox genes HOXB3, HOXB5, and HOXB7; assay: Posteriorization of human PSC-derived neurospheres/NCCs, Hox gene expression by qRT-PCR; type: cell-based; details: two days (48 hours) at the neurosphere stage; RA 2 μM
Procedure: Cells were fed mTeSR1 media and routinely passaged using Dispase II (Gibco). NCCs and HIOs were generated and combined at an early stage of intestinal differentiation to generate HIOs containing ENS. Briefly, for NCC generation (FIG. 1), hPSCs were treated with collagenase IV (500 U/mL) in mTeSR1 for 60 min to detach colonies. Cells were washed to remove collagenase, then gently triturated and resuspended in neural induction media on non-TC treated petri dishes. Neural induction media was changed daily and retinoic acid (2 μM) was added on days 4 and 5 for posteriorization. Day 6 free-floating neurospheres were plated on fibronectin (3 μg/cm2) and fed neural induction media without RA for 4 days. Migrated cells were collected using a brief Accutase treatment (2-3 min) and passaged onto fibronectin or used immediately for combining with HIOs. NCCs were differentiated essentially as described for neuroglial 9 and mesenchymal lineages 36. […] Following the formation of gut tube spheroids, Applicant gently centrifuged spheroids +/−NCCs and embedded them in Matrigel. […]
Total RNA from cells and organoids was isolated using NucleoSpin RNA isolation Kit (Macherey-Nagel). […] Applicant performed qPCR using QuantiTect SYBR Green PCR Kit (Qiagen) on a BioRad CFX96 Real-Time PCR Detection System. […]

[3] = system: vagal-level Hox genes HoxB3 and HoxB7; assay: Chick cranial NCC culture, Hox gene expression; type: cell-based; details: 2 μM RA or 4 ng/mL FGF4 for 48 hours
Procedure: Chicken eggs were purchased from Charles River and incubated at 39° C. until they reached the desired Hamburger and Hamilton stage. For chicken NCC culture, dorsal neural tubes from cranial or trunk region of HH8 embryos were dissected by Gastromaster and cultured on matrigel-coated tissue culture dish with NCC culture medium (BajPai R et al, 2010) for 24 hours. The neural ectoderm was scrapped off the plate by tungsten needle after NCCs migrated out from the neural tube explants. The NCCs remained on the plate were then treated with 4 ng/mL FGF4 or 2 μM Retinoic acid for 48 hours. For NCCs injection, GFP-labeled human PSC-derived NCCs were collected and injected intersomitically into HH10-12 chicken embryos. The embryos were harvested around HH38 for analysis.

[4] = system: human pluripotent stem cells; assay: Directed differentiation of human pluripotent stem cells into definitive endoderm; type: cell-based; details: 100 ng ml-1 Activin A for 3 d
Procedure: Human intestinal organoids were generated and maintained as previously described (Spence et al, Nature 2011 and McCracken et al. Nat. Protoc. 2011). Human embryonic stem cells and induced pluripotent stem cells were grown in feeder-free conditions in six-well Nunclon surface plates (Nunc) coated with Matrigel (BD Biosciences) and maintained in mTESR1 media (Stem Cell Technologies). For induction of definitive endoderm (DE), human ES or iPS cells were passaged with Dispase or Accutase (Invitrogen) and plated at a density of 100,000 cells per well in a Matrigel-coated, Nunclon surface 24-well plate. For Accutase split cells, 10 μM Y27632 compound (Sigma) was added to the media for the first day. Cells were allowed to grow until they reached 80-95% confluence. Cells were then treated with 100 ng ml-1 of Activin A for 3 d as previously described (D'Amour et al. Nat. Biotechnol. 2005). DE was then treated with hindgut induction medium (RPMI 1640, 2 mM L-glutamine, 2% decomplemented FBS, penicillin-streptomycin and 100 ng ml-1 Activin A) for 4 d with 500 ng mL-1 FGF4 (R&D) and 3 μM Chiron 99021 (Tocris) to induce formation of mid-hindgut spheroids. […]

C[C@H](CS)C(=O)N1CCC[C@H]1C(=O)O [Captopril]
fluorescence within the epithelium after injection of labeled peptide + competitive inhibitor [1]: little to no fluorescence was observed

[Cl-].[K+] [KC1]
neuronal calcium response (ENS neurons in HIOs+NCCs): large wave of neuronal calcium efflux

COC(=O)[C@@H](N)CCCNC(=N)N[N+](=O)[O-] [L-NAME, NG-nitro-L-arginine methyl ester]
effect on relaxation after DMPP stimulation (HIO+NCC tissues; L-NAME applied 5 min before DMPP (10 μM) stimulation): significantly decreased the relaxation

CN(C)c1ccc2nc3ccc(=[N+](C)C)cc-3sc2c1 [Methylene Blue]
effect on spontaneous phasic contractions (ICC activity) (HIO+NCC tissues; Methylene Blue 50 μM, no neuronal stimulation): abolished phasic contractions; also recorded: loss of contractile activity

NC1=N[C@H](O)[C@H]2[C@H]3O[C@]4(O)O[C@@H]([C@@H](O)[C@@]2(N1)[C@@H]4O)[C@]3(O)CO [TTX, tetrodotoxin]
effect on contractions/motility triggered by low voltage EFS (HIO+NCC tissue): completely inhibited and lost | effect on muscle relaxation in response to DMPP and or veratridine (HIO+NCC tissues): inhibited the ability of the neurons to induce muscle relaxation

B1: FGF4: growth factor tested as a different posterizing factor (protein, UniProt P08620 31-206, looked up)
Fibroblast growth factor 4: APTAPNGTLEAELERRWESLVALSLARLPVAAQPKEAAVQSGAGDYLLGIKRLRRLYCNVGIGFHLQALPDGRIGGAHADTRDSLLELSPVERGVVSIFGVASRFFVAMSSKGKLYGSPFFTDECTFKEILLPNNYNAYESYKYPGMFIALSKNGKTKKGNRVSPTMKVTHFLPRL
expression of vagal-level Hox genes in human PSC-derived NCCs [2]: little effect | Hox gene expression in chick cranial NCCs [3]: had no effect

B2: Activin A: growth factor used to induce definitive endoderm (protein, UniProt P08476 311-426, looked up)
Inhibin beta A chain: GLECDGKVNICCKKQFFVSFKDIGWNDWIIAPSGYHANYCEGECPSHIAGTSGSSLSFHSTVINHYRMRGHSPFANLKSCCVPTKLRPMSMLYYDDGQNIIKKDIQNMIVEECGCS
modifications: Inhibin beta A chain
notes: growth factor used to induce definitive endoderm
differentiation into definitive endoderm (FOXA2 and SOX17) [4]: efficient differentiation into definitive endoderm

— US11584916B2, “Method of making in vivo human small intestine organoids from pluripotent stem cells” (Children's Hospital Medical Center, priority 2014, dated 2023)
